Like-named read-outs stand apart in the source and are kept apart here.
Experiments:
[1] = system: Panc-1 human pancreatic xenograft; test: Panc-1 human pancreatic tumor xenograft in nude mice; assay type: in vivo; conditions: for Final Tumor weight Day 25 (Mean): BNC-1 20 mg/ml s.c. osmotic pump, tumor weight in mg
Source text: (§1) Female nude mice (nu/nu) between 5 and 6 weeks of age weighing approximately 20 g were implanted subcutaneously (s.c.) by trocar with fragments of human tumors harvested from s.c. grown tumors in nude mice hosts. […] Each group contains 8-10 mice, each of which was ear tagged and followed throughout the experiment.
(§2) The administration of drugs or controls began the day the animals were pair-matched (Day 1). […] Mice were weighed and tumor measurements were obtained using calipers twice weekly, starting Day 1. These tumor measurements were converted to mg tumor weight by standard formula, (W^2×L)/2. The experiment is terminated when the control group tumor size reached an average of about 1 gram. Upon termination, the mice were weighed, sacrificed and their tumors excised. The tumors were weighed and the mean tumor weight per group was calculated.
(§3) The control animals received pumps containing vehicle (50% DMSO in DMEM). The mice treated with standard chemotherapy agent received intra-peritoneal injections of Gemcitabine at 40 mg/kg every 3 days for 4 treatments (q3d×4). Each data point represent average tumor weight (n=8) and error bars indicate SEM.
as §3

A549 Sentinel Line = test: Sentinel Line reporter assay (beta-gal, FACS); assay type: cell-based, human; conditions: agent alone, 40 hrs, FACS
Protocol: The expression level of beta-galactosidase gene in sentinel lines was determined by using a fluorescent substrate fluorescein di-B-D-Galactopyranside (FDG, Marker Gene Tech, #M0250) introduced into cells by hypotonic shock. Cleavage by beta-galactosidase results in the production of free fluorescein, which is unable to cross the plasma membrane and is trapped inside the beta-gal positive cells. Briefly, the cells to be analyzed are trypsinized, and resuspended in PBS containing 2 mM FDG (diluted from a 10 mM stock prepared in 8:1:1 mixture of water: ethanol: DMSO). The cells were then shocked for 4 minutes at 37° C. and transferred to FACS tubes containing cold 1×PBS on ice. Samples were kept on ice for 30 minutes and analyzed by FACS in FLI channel.
Sentinel Line cells with beta-galactosidase reporter gene were plated at 1×10^5 cells/10 cm dish. […] After 40 hrs, the cells were trypsinized and the expression level of reporter gene was determined by FDG loading.
The reporter activity was measured by FACS analysis.

Na+/K+-ATPase [2] = molecular target: T1, Na+/K+-ATPase (Canis lupus familiaris, UniProt P50997); test: Na+/K+-ATPase inhibition; assay type: biochemical, dog
T1 construct: enzyme preparation from dog kidney (Sigma); purchased Sigma; host or cells: dog kidney tissue
Protocol: (§4) Anti-prolerafitive IC50 values were determined by MTS assay using an A549 cell line. Na^+/K^+-ATPase inhibition IC50 values were obtained using enzyme preparation from dog kidney (Sigma).

HIF-1α = test: Western blot using anti-HIF-1α antibody (Example XVI); assay type: cell-based; conditions: 1 μM
A549 cell line = test: anti-proliferation MTS assay in A549 cell line; assay type: cell-based; conditions: Homo sapiens
Protocol: as §4

[3] = system: A549 human non-small-cell-lung carcinoma; test: A549 human non-small-cell-lung carcinoma xenograft in nude mice; conditions: for % TGI: A549, Day 38; for Final Tumor weight Day 38 (Mean): A549, tumor weight in mg; for Final Tumor weight Day 38 (Mean) / % Weight Change at Day 38: BNC-1 20 mg/ml s.c. pump, Carboplatin 100 mg/kg ip; for % Weight Change at Day 38: A549 xenograft mice; for signs of tumor at the end of the experiment: A549 xenograft, 8 animals per group
Source text: as §1, §2
Carboplatin (qldxl) was injected at 100 mg/kg (Carb).

rats = conditions: adult; cited from earlier work
[4] = cited from earlier work
[5] = system: panel of 10 cancer cell lines; test: cytotoxicity against a panel of 10 cancer cell lines; assay type: cell-based; conditions: read-out: median IC50
Na+/K+-ATPase [6] = conditions: Erdmann E 1978; cited from earlier work
VEGF = VEGF secretion in tumor cells; assay type: cell-based; conditions: FIG. 8
[7] = system: Caki-1 human renal cancer xenograft; assay type: in vivo, nude mice; conditions: for % TGI: Caki-1, Day 22; for % TGI / Final Tumor weight Day 22 (Mean): BNC-1 20 mg/ml s.c. pump, Cytoxan 300 or 100 ip; for Final Tumor weight Day 22 (Mean): tumor weight in mg
Source text: as §1, §2

A549(ROS) Sentinel Line = test: ROS levels by FACS in A549(ROS) cells; assay type: cell-based, human; conditions: normoxia, 4 hrs
Protocol: Thirty minutes prior to the termination of incubation period, 2,7-dichlorofluorescin diacetate (CFH-DA, […]) was added to the cells and incubated for the last 30 min at 37° C. The ROS levels were determined by FACS analysis.

cats = conditions: cited from earlier work
[8] = system: several different cancer cell lines; test: proliferation of cancer cell lines (ouabain IC50); assay type: cell-based; conditions: read-out: IC50 across several different cancer cell lines
[9] = human pharmacokinetics (literature); conditions: species not stated
[10] = molecular target: Na+/K+-ATPase α peptide isoforms; conditions: read-out: Kd of ouabain for the four α peptide isoforms; almost all mammalian species; cited from earlier work
[11] = Panc-1, Gemcitabine 40 mg/kg q3d×4

## Nc1ccn([C@@H]2O[C@H](CO)[C@@H](O)C2(F)F)c(=O)n1 [Gemcitabine, gemcitabine]
[1]; [11]
  Final Tumor weight Day 25 (Mean): 701.3
[1]; Panc-1, BNC-4 15 mg/ml s.c. pump, Gemcitabine 40 mg/kg q3d×4
  TGI: 65%
[1]; mouse, in vivo
  % TGI: 37.40%
A549 Sentinel Line
  reporter activity in Sentinel Lines: elevated reporter activity

## C[C@@H]1OC(OC2C=C3CCC4C5=CC[C@H](c6ccc(=O)oc6)[C@@]5(C)CCC4[C@@]3(C)CC2)[C@H](O)[C@H](O)[C@H]1O (some centres unmarked) [BNC-151]
Na+/K+-ATPase [2]
  IC50: 1.38 µM
HIF-1α
  HIF-1α expression: Significant inhibition
A549 cell line
  IC50: 0.26 µM

## N.N.O=C([O-])C1(C(=O)[O-])CCC1.[Pt+2] [Carboplatin]
[3]
  % TGI: 39.50%
  Final Tumor weight Day 38 (Mean): 509.75
  % Weight Change at Day 38: 16%
  signs of tumor at the end of the experiment: developed tumors of significant sizes
A549 Sentinel Line
  reporter activity in Sentinel Lines: increases in cell death and reporter activity

## C[C@H]1O[C@@H](O[C@H]2[C@@H](O)C[C@H](O[C@H]3[C@@H](O)C[C@H](O[C@H]4CC[C@@]5(C)[C@H](CC[C@@H]6[C@@H]5CC[C@]5(C)[C@@H](C7=CC(=O)OC7)CC[C@]65O)C4)O[C@@H]3C)O[C@@H]2C)C[C@H](O)[C@@H]1O [Digitoxin]
rats
  LD50 p.o.: 0.1 mg/kg

## C[C@H]1O[C@@H](O[C@H]2[C@@H](O)C[C@H](O[C@H]3[C@@H](O)C[C@H](O[C@H]4CC[C@@]5(C)[C@H](CC[C@@H]6[C@@H]5C[C@@H](O)[C@]5(C)[C@@H](C7=CC(=O)OC7)CC[C@]65O)C4)O[C@@H]3C)O[C@@H]2C)C[C@H](O)[C@@H]1O [Digoxin]
[4]; in vivo
  Volume-of-Distribution (VD): 650 L
[5]
  IC50: 0.037 µM
Na+/K+-ATPase [6]
  order of Na+/K+-ATPase-inhibition: Ouabain<Digoxin<Proscillaridin

## COc1cc2ncnc(Nc3ccc(F)c(Cl)c3)c2cc1OCCCN1CCOCC1 [Iressa]
A549 Sentinel Line
  reporter activity in Sentinel Lines: reduction in reporter activity

## CC(=O)O[C@H]1C(=O)[C@@]2(C)[C@H]([C@H](OC(=O)c3ccccc3)[C@]3(O)C[C@H](OC(=O)[C@H](O)[C@@H](NC(=O)c4ccccc4)c4ccccc4)C(C)=C1C3(C)C)[C@]1(OC(C)=O)CO[C@@H]1C[C@@H]2O [paclitaxel]
A549 Sentinel Line
  reporter activity in Sentinel Lines: increases in cell death and reporter activity

## CC(=O)OC1C=C2CCC3C4=CC[C@H](c5ccc(=O)oc5)[C@@]4(C)CCC3[C@@]2(C)CC1 (some centres unmarked) [BNC-147]
Na+/K+-ATPase [2]
  IC50: 65 µM
A549 cell line
  IC50: 11.5 µM

## C[C@@H]1O[C@@H](O[C@H]2C[C@@H](O)[C@]3(CO)[C@H]4[C@H](O)C[C@]5(C)[C@@H](C6=CC(=O)OC6)CC[C@]5(O)[C@@H]4CC[C@]3(O)C2)[C@H](O)[C@H](O)[C@H]1O [BNC-1, ouabain]
[4]; according to the literature
  plasma half-life in human: about 20 hours
  plasma half-life in human, range: 5 to 50 h
VEGF
  secretion of VEGF in tumor cells: directly or indirectly inhibits
[3]
  % TGI: 100.00%
  Final Tumor weight Day 38 (Mean): 0.0
  % Weight Change at Day 38: 21%
  signs of tumor at the end of the experiment: none of the experimental animals showed any signs of tumor
[7]
  % TGI: 81.45%
[7]; Caki-1
  Final Tumor weight Day 22 (Mean): 314.9
A549(ROS) Sentinel Line
  ROS production: induces ROS production
cats
  intravenous toxicity: 0.133 mg/kg
  toxicity on duodenal administration: 5.3 mg/kg
[1]; Panc-1, Day 25, BNC-1 20 mg/ml s.c. pump, Gemcitabine 40 mg/kg q3d×4
  % TGI: 82.15%
[1]; [11]
  Final Tumor weight Day 25 (Mean): 200
[8]
  IC50: 0.015 to 0.6 µM
[9]
  max. plasma concentration: about 0.03 μg/mL
[5]
  IC50: 0.078 µM
[10]
  Kd: ≤ 0.001 µM
mice
  toxic serum concentration at day 1 (serum level at MTD): about 50±21 ng/ml
Steady state, xenograft nude mouse
  therapeutic serum concentration required to achieve >60% TGI: about 20±15 ng/ml
Na+/K+-ATPase [6]
  order of Na+/K+-ATPase-inhibition: Ouabain<Digoxin<Proscillaridin

## O=P1(N(CCCl)CCCl)NCCCO1 (centres unmarked) [Cytoxan]
[7]
  % TGI: 94.48%
[7]; listed as Cytoxan100
  % TGI: 54.70%
[7]; Caki-1
  Final Tumor weight Day 22 (Mean): 93.7
[7]; Caki-1, listed as Cytoxan100
  Final Tumor weight Day 22 (Mean): 769
[7]; Caki-1, Cytoxan 100 mg/kg alone, positive control
  TGI: 92%

## O=C1c2c(O)ccc(O)c2C(=O)c2c(NCCNCCO)ccc(NCCNCCO)c21 [mitoxanthrone, mitoxantrone]
A549 Sentinel Line
  reporter activity in Sentinel Lines: increases in cell death and reporter activity
